Measurements published in patent US6858723B1, “Amphiphile cyclodextrins, preparation and use thereof for solubilizing organized systems and incorporating hydrophobic molecules” (Commissariat a l'Energie Atomique, priority 1999, dated 2005).

Legend:
Format in all cases: physicochemical
[1] = neutron diffusion of nanoparticles loaded with hydrophobic compounds
From the text: FIG. 7 represents the neutron diffusion spectra obtained with: • the solution of nanoparticles of cyclodextrin according to example 1 and the fatty acid (1:0.5 eq. mol) (spectrum 9); • the solution of nanoparticles of cyclodextrin according to example 1 and the fatty acid (1:1 eg. mol) (spectrum 10); and • the solution of nanoparticles of cyclodextrin alone (spectrum 11).
In this figure, the theoretical spectrum (spectrum 12) simulating spheres has also been represented.
The intensity I(q) is increased. The Intensity I(q) is proportional to the volume of nanoparticles. The presence of additional molecules (fatty acid molecules) in the nanoparticles increases the value of the contrast and therefore the intensity.
The incorporation in mono-6-(cholest-5-en-3α-ylamide)succinylamide-6-deoxy-2,2′,2″,2′″,2″″,2′″″,2″″″,6′,6″,6′″, 6″″,6′″″,6″″″-trideca-O-methyl-cyclomaltoheptaose nanoparticles of the following hydrophobic compounds: • dothiepin (neurotrope), • chloramphenicol (bacteriostatic), • vitamin A, and • esculin (vascular wall tonic), • were also detected by neutron diffusion. References

[2] = cmc by surface tension measurements
Procedure: The cmc of the cyclodextrin in example 1 was determined with surface tension measurements. The value of the cmc is 9.10^−6 mol/l.

[3] = static light diffusion of aqueous nanoparticle solutions
Procedure: The mean hydrodynamic diameter of the nanoparticles was measured by quasi-elastic light diffusion. The mean diameter MD value calculated according to the Stokes-Einstein approximation based on the interaction-free perfect sphere model is […] (60 Å). The static light diffusion analysis of aqueous solutions of nanoparticles at different concentrations (2.5.10^−3, 5.10^−3 and 10^−2 mol/l) gives a mean aggregate mass of 43,000 g/mol, which is equivalent to a mean of 24 monomers per nanoparticle.

[4] = neutron diffusion of nanoparticle solution; conditions: 10^−2 mol/l in D2O
From the text: The diffusion spectrum obtained from a 10^−2 mol/l solution in D2O of the cyclodextrin derivative in example 1 is represented in FIG. 1 (spectrum 1).
In FIG. 1, the theoretical spectra simulating spheres (spectrum 2), cylinders (spectrum 3) or lamellae (spectrum 4) formed from the cyclodextrin derivative in example 1, at a concentration of 10^−2 mol/l in D2O, are also shown. […] These aggregates are lined on the surface with cyclodextrin cavities available for the inclusion of hydrophobic active molecules, the core being composed of cholesterol groups. The theoretical spectrum simulating spheres gives a mean diameter of […] (50 Å) and a mean number of monomers per nanoparticle of 24.

| incorporation in nanoparticles of the cyclodextrin of example 1 [1] | Compound | also measured |
| --- | --- | --- |
| detected | O=C(N[C@H](CO)[C@H](O)c1ccc([N+](=O)[O-])cc1)C(Cl)Cl [chloramphenicol] |  |
| detected | CN(C)CC/C=C1\c2ccccc2CSc2ccccc21 [dothiepin] |  |
|  | mono-6-(cholest-5-en-3α-ylaamide)succinylamide-6-deoxy-2,2′,2″,2′″,2″″,2′″″,2″″″,6,6′,6″,6′″,6″″,6′″″,6″″″-trideca-O-methyl-cyclomaltoheptaose [example 1] | critical micellar concentration cmc [2]: 9.10^−6 mol/l; mean aggregate mass ([3]; aqueous solutions 2.5.10^−3, 5.10^−3 and 10^−2 mol/l): 43,000 g/mol; mean monomers per nanoparticle ([3]; from mean aggregate mass): 24; shape of aggregates ([4]; experimental spectrum superimposed with theoretical spectrum of spheres): spherical shape; mean number of monomers per nanoparticle ([4]; theoretical spectrum simulating spheres): 24 |
| detected | vitamin A |  |

| Compound | incorporation in nanoparticles of the cyclodextrin of example 1 [1] | also measured |
| --- | --- | --- |
| CC(CCCCCCCCCCCCCI)CC(=O)O (stereo not shown) [16-iodo-3-methylhexadecanoic acid] | marked modifications on the diffusion spectra |  |
| O=c1ccc2cc(O[C@@H]3O[C@H](CO)[C@@H](O)[C@H](O)[C@H]3O)c(O)cc2o1 [esculin] | detected |  |
